The values that follow come from patent US20150344540A1, “NOVEL GLP-1 RECEPTOR AGONISTS WITH CHOLESTEROL EFFLUX ACTIVITY” (NOVO NORDISK A/S, priority 2012, published 2015).

The experiment concerns Mouse monocyte/macrophage cell line, RAW 264.7. In words: Cholesterol efflux assay (3H-cholesterol, macrophage cell line). Type of experiment: cell-based. Particulars: RAW 264.7, 4 hrs incubation, 0.1% human serum albumin, ABCA1-mediated efflux.

Where a SMILES comes first, the peptide text is derived from it. [ ]: non-standard residue; d: D form. Aib = CC(C)(N)C(=O)O

For the molecule `CC[C@H](C)[C@H](NC(=O)[C@H](Cc1ccccc1)NC(=O)[C@H](CCC(=O)O)NC(=O)[C@H](CCCCN)NC(=O)[C@@H](NC(=O)[C@H](C)NC(=O)[C@H](Cc1c[nH]c2ccccc12)NC(=O)CNC(=O)[C@H](CCC(=O)O)NC(=O)[C@H](CC(C)C)NC(=O)[C@H](Cc1ccc(O)cc1)NC(=O)[C@H](CO)NC(=O)[C@H](CO)NC(=O)[C@@H](NC(=O)[C@H](CC(=O)O)NC(=O)[C@H](CO)NC(=O)[C@@H](NC(=O)[C@H](Cc1ccccc1)NC(=O)[C@@H](NC(=O)CNC(=O)[C@H](CCC(=O)O)NC(=O)C(C)(C)NC(=O)[C@@H](N)Cc1c[nH]cn1)[C@@H](C)O)[C@@H](C)O)C(C)C)C(C)C)C(=O)N[C@@H](C)C(=O)N[C@@H](Cc1c[nH]c2ccccc12)C(=O)N[C@@H](CC(C)C)C(=O)N[C@H](C(=O)N[C@@H](CCC(=O)O)C(=O)N[C@@H](CCCCN)C(=O)NC(C)(C)C(=O)N[C@@H](CCCCN)C(=O)N[C@@H](CCC(=O)O)C(=O)N[C@@H](Cc1ccccc1)C(=O)N[C@@H](CC(C)C)C(N)=O)C(C)C` [Compound 21, [Aib8,Trp23,Val25,Glu34,Lys35,Aib36,Lys37]-GLP-1-(7-37)-peptidyl-Glu-Phe-Leu amide] (H-H[Aib]EGTFTSDVSSYLEGWAVKEFIAWLVEK[Aib]KEFL-NH2), the “4 h Cholesterol Efflux Emax” value stood at 70%.
With `CC[C@H](C)[C@H](NC(=O)[C@H](Cc1ccccc1)NC(=O)[C@H](CCC(=O)O)NC(=O)[C@H](CCCCN)NC(=O)[C@H](C)NC(=O)[C@H](C)NC(=O)[C@H](CCC(N)=O)NC(=O)CNC(=O)[C@H](CCC(=O)O)NC(=O)[C@H](CC(C)C)NC(=O)[C@H](Cc1ccc(O)cc1)NC(=O)[C@H](CO)NC(=O)[C@H](CO)NC(=O)[C@@H](NC(=O)[C@H](CC(=O)O)NC(=O)[C@H](CO)NC(=O)[C@@H](NC(=O)[C@H](Cc1ccccc1)NC(=O)[C@@H](NC(=O)CNC(=O)[C@H](CCC(=O)O)NC(=O)[C@H](C)NC(=O)[C@@H](N)Cc1c[nH]cn1)[C@@H](C)O)[C@@H](C)O)C(C)C)C(=O)N[C@@H](C)C(=O)N[C@@H](Cc1c[nH]c2ccccc12)C(=O)N[C@@H](CC(C)C)C(=O)N[C@H](C(=O)N[C@@H](CCCCN)C(=O)NCC(=O)N[C@@H](CCCNC(=N)N)C(=O)NCC(=O)O)C(C)C` [GLP-1(7-37), reference compound] the figure was less than 10%; with “Ac-DWFKAFYDKVAEKFKEAF-NH2 (N-terminus and C-terminus assumed) [Compound L-4F, reference compound]”, 108%; with `CC[C@H](C)[C@H](NC(=O)[C@H](Cc1ccccc1)NC(=O)[C@H](CCC(=O)O)NC(=O)[C@H](CCCCN)NC(=O)[C@@H](NC(=O)C(C)(C)NC(=O)[C@H](CCC(=O)O)NC(=O)CNC(=O)[C@H](CCC(=O)O)NC(=O)[C@H](CC(C)C)NC(=O)[C@H](Cc1ccc(O)cc1)NC(=O)[C@H](CO)NC(=O)[C@H](CO)NC(=O)[C@@H](NC(=O)[C@H](CC(=O)O)NC(=O)[C@H](CO)NC(=O)[C@@H](NC(=O)[C@H](Cc1ccccc1)NC(=O)[C@@H](NC(=O)CNC(=O)[C@H](CCC(=O)O)NC(=O)C(C)(C)NC(=O)[C@@H](N)Cc1c[nH]cn1)[C@@H](C)O)[C@@H](C)O)C(C)C)C(C)C)C(=O)NC(C)(C)C(=O)N[C@@H](Cc1c[nH]c2ccccc12)C(=O)N[C@@H](CC(C)C)C(=O)N[C@H](C(=O)N[C@@H](CCC(=O)O)C(=O)N[C@@H](CCCCN)C(=O)NC(C)(C)C(=O)N[C@@H](CCCCN)C(=O)N[C@@H](CCC(=O)O)C(=O)N[C@@H](Cc1ccccc1)C(=O)N[C@@H](CC(C)C)C(N)=O)C(C)C` [Compound 3, [Aib8,Glu23,Aib24,Val25,Aib30,Glu34,Lys35,Aib36,Lys37]-GLP-1-(7-37)-peptidyl-Glu-Phe-Leu amide] (H-H[Aib]EGTFTSDVSSYLEGE[Aib]VKEFI[Aib]WLVEK[Aib]KEFL-NH2), 82%.
Under `CC[C@H](C)[C@H](NC(=O)[C@H](Cc1ccccc1)NC(=O)[C@H](CCC(=O)O)NC(=O)[C@H](CCCCN)NC(=O)[C@@H](NC(=O)[C@H](C)NC(=O)[C@H](CCC(=O)O)NC(=O)CNC(=O)[C@H](CCC(=O)O)NC(=O)[C@H](CC(C)C)NC(=O)[C@H](Cc1ccc(O)cc1)NC(=O)[C@H](CO)NC(=O)[C@H](CO)NC(=O)[C@@H](NC(=O)[C@H](CC(=O)O)NC(=O)[C@H](CO)NC(=O)[C@@H](NC(=O)[C@H](Cc1ccccc1)NC(=O)[C@@H](NC(=O)CNC(=O)[C@H](CCC(=O)O)NC(=O)C(C)(C)NC(=O)[C@@H](N)Cc1c[nH]cn1)[C@@H](C)O)[C@@H](C)O)C(C)C)C(C)C)C(=O)N[C@@H](C)C(=O)N[C@@H](Cc1c[nH]c2ccccc12)C(=O)N[C@@H](CC(C)C)C(=O)N[C@@H](CC(C)C)C(=O)N[C@@H](CCC(=O)O)C(=O)N[C@@H](CCCCN)C(=O)NC(C)(C)C(=O)N[C@@H](CCCCN)C(=O)N[C@@H](CCC(=O)O)C(=O)N[C@@H](Cc1c[nH]c2ccccc12)C(=O)N[C@@H](CC(C)C)C(N)=O` [Compound 89, [Aib8,Glu23,Val25,Leu33,Glu34,Lys35,Aib36,Lys37]-GLP-1-(7-37)-peptidyl-Glu-Trp-Leu amide] (H-H[Aib]EGTFTSDVSSYLEGEAVKEFIAWLLEK[Aib]KEWL-NH2) stands 102%; under `CC[C@H](C)[C@H](NC(=O)[C@H](Cc1ccccc1)NC(=O)[C@H](CCC(=O)O)NC(=O)[C@H](CCCNC(=N)N)NC(=O)[C@H](C)NC(=O)[C@H](CCCNC(=N)N)NC(=O)[C@H](CCCCN)NC(=O)CNC(=O)[C@H](CCC(=O)O)NC(=O)[C@H](CC(C)C)NC(=O)[C@H](Cc1ccc(O)cc1)NC(=O)[C@H](CO)NC(=O)[C@H](CO)NC(=O)[C@@H](NC(=O)[C@H](CC(=O)O)NC(=O)[C@H](CO)NC(=O)[C@@H](NC(=O)[C@H](Cc1ccccc1)NC(=O)[C@@H](NC(=O)CNC(=O)[C@H](CCC(=O)O)NC(=O)C(C)(C)NC(=O)[C@@H](N)Cc1c[nH]cn1)[C@@H](C)O)[C@@H](C)O)C(C)C)C(=O)N[C@@H](C)C(=O)N[C@@H](Cc1c[nH]c2ccccc12)C(=O)N[C@@H](CC(C)C)C(=O)N[C@H](C(=O)N[C@@H](CCC(=O)O)C(=O)N[C@@H](CCCCN)C(=O)NC(C)(C)C(=O)N[C@@H](CCCCN)C(=O)N[C@@H](CCC(=O)O)C(=O)N[C@@H](Cc1ccccc1)C(=O)N[C@@H](CC(C)C)C(N)=O)C(C)C` [Compound 52, [Aib8,Lys23,Arq24,Arq26,Glu34,Lys35,Aib36,Lys37]-GLP-1-(7-37)-peptidyl-Glu-Phe-Leu amide] (H-H[Aib]EGTFTSDVSSYLEGKRAREFIAWLVEK[Aib]KEFL-NH2), 98%.
